{"source": "patent US11975003B2", "about": "“Methods and compositions for treatment of Zika virus infection” (priority 2016, dated 2024)", "key": {"[1]": {"test_system": "Zika virus Malaysia P 6-740", "experiment": "CPE reduction assay (neutral red uptake)", "assay_type": "cell-based", "description": "(§1) The compounds were administered at a range of concentrations up to 100 μg/ml. Compounds were prepared in MEM just prior to testing. Inhibition of virus replication was determined by microscopic examination of the infected cells for cytopathic effect, increase of neutral red (NR) dye uptake (colorimetric determination), and virus yield reduction. Uninfected cells treated with a compound were assayed as above for cytotoxicity control. The EC50, EC90 and SI (selectivity index) values were determined in Vero76, Huh7 and RD cells as analyzed by the neutral red uptake dye assay and virus yield reduction assays. The results are presented from 3 or more independent experiments (standard deviations not shown. Three Zika virus strains were used in this in vitro study, Malaysia strain P 6-740, Uganda strain MR-766 and Puerto Rico strain PRVABC-59. Cells were maintained under standard conditions."}, "[2]": {"test_system": "Zika virus Puerto Rico PRVABC59", "experiment": "CPE reduction assay (neutral red uptake)", "assay_type": "cell-based", "settings": "Puerto Rico PRVABC59", "description": "as §1"}, "Zika virus Uganda MR 766 [3]": {"test_system": "Zika virus Uganda MR 766", "experiment": "CPE reduction assay (neutral red uptake)", "assay_type": "cell-based", "description": "as §1"}, "[4]": {"test_system": "Zika virus Malaysia P 6-740", "experiment": "Virus yield reduction (VYR) assay", "assay_type": "cell-based", "description": "as §1"}, "[5]": {"test_system": "Zika virus Puerto Rico PRVABC59", "experiment": "Virus yield reduction (VYR) assay", "assay_type": "cell-based", "settings": "Puerto Rico PRVABC59", "description": "as §1"}, "Zika virus Uganda MR 766 [6]": {"test_system": "Zika virus Uganda MR 766", "experiment": "Virus yield reduction (VYR) assay", "assay_type": "cell-based", "description": "as §1"}, "[7]": {"test_system": "Zika virus (Malaysia, strain P 6-740)", "experiment": "Murine Zika virus model, re-challenge on day 28 (Example 4)", "assay_type": "in vivo, AG129 mice", "description": "In this example, the surviving mice from the study described in Example 3 were subject to re-challenge on day 28 post-infection. On day 28, the only surviving mice in a treatment group were in group 1 (7/8 mice), the normal controls (group 8, 8/8 mice) and the virus sham treated groups (group 2, 8/8 mice and group 6, 8/8/mice). All surviving mice (with the exception of normal controls) were administered a challenge of Zika virus identical to the initial challenge.\nNo animals in Groups 1, 2 and 6 were administered additional doses of Compound A on day 28 prior to or after re-challenge. In this experiment, the sham infected mice of groups 2 and 6 served as the control groups to analyze the effects of treatment of Compound A on immune system activation (note that mice in group 2 received the same 300 mg/kg/day dose of Compound A as the mice in group 1 on day 0). The survival of the mice was monitored through day 60 post-initial infection."}, "[8]": {"test_system": "Zika virus (Malaysia, strain P 6-740)", "experiment": "Murine Zika virus model, treatment begun 1, 3, 5 or 7 dpi (Example 5)", "assay_type": "in vivo, AG129 mice", "settings": "for number of mice showing no disease signs: n=8; for weight change in grams between days 7 and 13 post-infection vs placebo: FIG. 10B", "description": "Compound A was administered IM at 300 mg/kg/day in a volume of 0.05 ml saline.\nDisease signs were assessed daily for each mouse and the date the disease sign was first noted was recorded. The graph represents the number of mice observed with each disease sign. […] As the time of administration of Compound A post-infection increased, the number of mice displaying no disease signs decreased (2 mice at 3 dpi, 1 mouse at 5 dpi and 0 mice at 7 dpi) and the total number of disease signs increased (13 disease signs at 3 dpi, 16 disease signs at 5 dpi and 23 disease signs at 7 dpi)."}, "[9]": {"test_system": "Zika virus KF993678 (Thai isolate)", "experiment": "Non-human primate Zika virus model, heterologous challenge day 70 (Example 6)", "assay_type": "in vivo, Indian rhesus macaques", "settings": "Groups 1 and 2, no additional dosing"}, "Zika virus PRVABC-59": {"test_system": "Zika virus PRVABC-59", "settings": "for plasma viremia: n=4; for samples with Zika virus below the limit of quantification: FIG. 15D"}}, "note": "Where two headings read alike, the source gives them in different places."}
{"smiles": "Cl.Nc1ncnc2c([C@@H]3N[C@H](CO)[C@@H](O)[C@H]3O)c[nH]c12", "note": "[Compound A]", "values": [{"measurement": "CPE red. assay EC50", "setting": "[1]; Huh-7 cells", "value": "5.5 ± 0.1", "unit": "µg/mL"}, {"measurement": "CPE red. assay EC50", "setting": "[1]; Vero76 cells", "value": "11.5 ± 4.4", "unit": "µg/mL"}, {"measurement": "CPE red. assay EC50", "setting": "[2]; Huh-7 cells", "value": "4.7 ± 0.6", "unit": "µg/mL"}, {"measurement": "CPE red. assay EC50", "setting": "[2]; RD cells", "value": "4.7 ± 2.2", "unit": "µg/mL"}, {"measurement": "CPE red. assay EC50", "setting": "[2]; Vero76 cells", "value": "3.8 ± 2.5", "unit": "µg/mL"}, {"measurement": "CPE red. assay EC50", "setting": "Zika virus Uganda MR 766 [3]; Huh-7 cells", "value": "5.7 ± 0.9", "unit": "µg/mL"}, {"measurement": "CPE red. assay EC50", "setting": "Zika virus Uganda MR 766 [3]; RD cells", "value": "4.4 ± 1.3", "unit": "µg/mL"}, {"measurement": "CPE red. assay EC50", "setting": "Zika virus Uganda MR 766 [3]; Vero76 cells", "value": "11.7 ± 4.7", "unit": "µg/mL"}, {"measurement": "VYR assay EC90", "setting": "[4]; Huh-7 cells", "value": "4.9 ± 0.9", "unit": "µg/mL"}, {"measurement": "VYR assay EC90", "setting": "[4]; Vero76 cells", "value": "13.8 ± 3.7", "unit": "µg/mL"}, {"measurement": "VYR assay EC90", "setting": "[5]; Huh-7 cells", "value": "6.7 ± 1.2", "unit": "µg/mL"}, {"measurement": "VYR assay EC90", "setting": "[5]; RD cells", "value": "10.0 ± 2.2", "unit": "µg/mL"}, {"measurement": "VYR assay EC90", "setting": "[5]; Vero76 cells, virus harvested 5 dpi, 1 log10 CCID50 reduction", "value": "18.2 ± 2.7", "unit": "µg/mL"}, {"measurement": "VYR assay EC90", "setting": "Zika virus Uganda MR 766 [6]; Huh-7 cells", "value": 6.4, "unit": "µg/mL"}, {"measurement": "VYR assay EC90", "setting": "Zika virus Uganda MR 766 [6]; RD cells", "value": "5.4 ± 1.1", "unit": "µg/mL"}, {"measurement": "VYR assay EC90", "setting": "Zika virus Uganda MR 766 [6]; Vero76 cells", "value": 8.7, "unit": "µg/mL"}, {"measurement": "re-challenged mice surviving at day 60", "setting": "[7]; group 1 (300 mg/kg/day from day 0, 7 survivors), second Zika challenge day 28, no additional dosing", "value": 7, "unit": "mice"}, {"measurement": "survival after first Zika challenge on day 28", "setting": "[7]; group 2 (300 mg/kg/day from day 0, sham infected), no dosing at challenge", "value": "no survival was observed past day 51"}, {"measurement": "time of first administration at which treatment is effective", "setting": "[8]; 300 mg/kg/day IM", "value": "up to 5 days post-infection"}, {"measurement": "survival vs placebo", "setting": "[8]; 300 mg/kg/day IM bid x 8 days, begun 1 dpi, p≤0.001", "value": "statistically significant improvements in survival"}, {"measurement": "viral RNA levels in serum on day 5 post-infection", "setting": "[8]; 300 mg/kg/day IM, begun 1, 3, 5 or 7 dpi, FIG. 10C", "value": "not significantly decreased"}, {"measurement": "total number of disease signs", "setting": "[8]; 300 mg/kg/day IM, begun 1 dpi", "value": 6, "unit": "disease signs"}, {"measurement": "number of mice showing no disease signs", "setting": "[8]; 300 mg/kg/day IM, begun 1 dpi", "value": 6, "unit": "mice"}, {"measurement": "weight change in grams between days 7 and 13 post-infection vs placebo", "setting": "[8]; 300 mg/kg/day IM, begun 1 dpi, p≤0.001", "value": "statistically significant decrease in weight loss"}, {"measurement": "percent weight change", "setting": "[8]; 300 mg/kg/day IM, begun 1 dpi, through 27 dpi, FIG. 10A", "value": "essentially no weight change"}, {"measurement": "mortality curve and survival vs placebo", "setting": "[8]; 300 mg/kg/day IM, begun 3 dpi", "value": "delayed the mortality curve of infected mice and increased survival"}, {"measurement": "total number of disease signs", "setting": "[8]; 300 mg/kg/day IM, begun 3 dpi", "value": 13, "unit": "disease signs"}, {"measurement": "percentage weight loss", "setting": "[8]; 300 mg/kg/day IM, begun 3 dpi, FIG. 10A", "value": "statistically significant decreases in percentage weight loss"}, {"measurement": "number of mice showing no disease signs", "setting": "[8]; 300 mg/kg/day IM, begun 3 dpi", "value": 2, "unit": "mice"}, {"measurement": "weight change in grams between days 7 and 13 post-infection vs placebo", "setting": "[8]; 300 mg/kg/day IM, begun 3 dpi, p≤0.001", "value": "statistically significant decrease in weight loss"}, {"measurement": "mortality curve and survival vs placebo", "setting": "[8]; 300 mg/kg/day IM, begun 5 dpi", "value": "delayed the mortality curve of infected mice and increased survival"}, {"measurement": "total number of disease signs", "setting": "[8]; 300 mg/kg/day IM, begun 5 dpi", "value": 16, "unit": "disease signs"}, {"measurement": "percentage weight loss", "setting": "[8]; 300 mg/kg/day IM, begun 5 dpi, FIG. 10A", "value": "statistically significant decreases in percentage weight loss"}, {"measurement": "number of mice showing no disease signs", "setting": "[8]; 300 mg/kg/day IM, begun 5 dpi", "value": 1, "unit": "mouse"}, {"measurement": "total number of disease signs", "setting": "[8]; 300 mg/kg/day IM, begun 7 dpi", "value": 23, "unit": "disease signs"}, {"measurement": "number of mice showing no disease signs", "setting": "[8]; 300 mg/kg/day IM, begun 7 dpi", "value": 0, "unit": "mice"}, {"measurement": "viral RNA in serum after heterologous challenge", "setting": "[9]; FIG. 14A", "value": "minimal viral RNA"}, {"measurement": "viral RNA in CSF after heterologous challenge", "setting": "[9]; FIG. 14B", "value": "minimal viral RNA"}, {"measurement": "plasma viremia", "setting": "Zika virus PRVABC-59; Group 1: 200 mg/kg day 0, 25 mg/kg b.i.d. days 1-9, IM", "value": "did not develop detectable viremia"}, {"measurement": "plasma viremia", "setting": "Zika virus PRVABC-59; Group 2: 150 mg/kg day 0, 19 mg/kg b.i.d. days 1-9, IM", "value": "only one animal from this group showing slight viremia"}, {"measurement": "plasma viremia", "setting": "Zika virus PRVABC-59; Group 3: 100 mg/kg day 0, 13 mg/kg b.i.d. days 1-9, IM", "value": "only two animals from this group showing slight viremia"}, {"measurement": "plasma viremia", "setting": "Zika virus PRVABC-59; Group 4: 50 mg/kg day 0, 6 mg/kg b.i.d. days 1-9, IM", "value": "viremic between days 4 to 7 post-infection"}, {"measurement": "tolerability", "setting": "Zika virus PRVABC-59; IM, Groups 1 to 4", "value": "well-tolerated"}, {"measurement": "samples with Zika virus below the limit of quantification", "setting": "Zika virus PRVABC-59; total dose 492 mg/kg (Group 2)", "value": "3 out of 4"}, {"measurement": "samples with Zika virus below the limit of quantification", "setting": "Zika virus PRVABC-59; total dose 650 mg/kg (group 1)", "value": "4 out of 4"}, {"measurement": "maximum Zika virus titers vs control", "setting": "Zika virus PRVABC-59; total doses greater than 334 mg/kg (Groups 1 to 3), p <0.0001", "value": "decreased dramatically"}]}
